Measured values published in patent US20070254887A1, “Pharmaceutical Composition for Transdermal Administration of Perospirone” (priority 2004, published 2007).
Counter-ions that a name gives are not always drawn.

Legend:
antiserotonin activity = settings: rat; cited from earlier work
[1] = test system: tryptamine-induced clonic seizures of forepaws; test: Antiserotonin activities in rat tryptamine-induced clonic seizures of forepaws model; type: in vivo, SD rats; settings: for Efficacy (positive numbers/total numbers): placebo tape 1 cm × 1 cm
Method: Antiserotonin activities of the perospirone tape prepared in Example 14 (Formulation 10) and the perospirone tape prepared in Example 15 (Formulation 11) were assessed in a rat tryptamine-induced clonic seizures of forepaws model. The test was carried out according to the description of Jpn. J. Pharmacol. 53, 321-329 (1990).
Specifically, 7-week-old SD rats were dehaired the back on the day before the test, the tapes were patched on the back, and further water was administered orally in an amount of 5 ml/Kg. After the patching of tapes, a tryptamine hydrochloride was administered via tail veins in a dose of 40 mg/Kg at predetermined times as assessment times, and appearance of a clonic seizures of forepaws was observed.
7-Week-old SD rats were dehaired the back on the day before the test, patched with the placebo tape (Reference Formulation 1) containing no perospirone prepared in Reference Example 1 on the back, and administered orally perospirone hydrochloride hydrate in a dose of 3 mg/Kg or 0.5 mg/Kg. After administrations, a tryptamine hydrochloride was administered via tail veins in a dose of 40 mg/Kg at predetermined times as assessment times. An inhibitory effect of a tryptamine-induced behavior was determined in the same manner as Experiment 1.

[2] = test system: apomorphine-induced stereotypy; test: Antidopaminergic activities in rat apomorphine-induced stereotypy model; type: in vivo, SD rats; settings: for Efficacy (positive numbers/total numbers): placebo tape 1 cm × 1 cm
Method: […]. The test was carried out according to the description of Jpn. J. Pharmacol. 53, 321-329 (1990).
Specifically, 7-week-old SD rats were dehaired the back on the day before the test, patched the tapes on the back, and further water was administered orally in an amount 5 ml/Kg. After the patching, an apomorphine hydrochloride was administered via tail veins in a dose of 1.25 mg/Kg at predetermined times as assessment times, and stereotypy was observed.
7-Week-old SD rats were dehaired the back on the day before the test, patched the placebo tape (Reference Formulation 1) containing no perospirone prepared in Reference Example 1 on the back, and administered orally perospirone hydrochloride hydrate in a dose of 10 mg/Kg or 2 mg/Kg. Thereafter, an apomorphine hydrochloride was administered via tail veins in a dose of 1.25 mg/Kg at predetermined times as assessment times. An inhibitory effect of an apomorphine-induced behavior was determined in the same manner as Experiment 2.

[3] = Blood kinetics assessment: serum concentrations of perospirone and ID-15036 after transdermal or oral administration; type: in vivo, SD male rats; settings: rat, oral administration, first measurement point (FIG. 5)
Method: 7-Week-old SD male rats were anesthetized and dehaired the abdomen. The rats were administered with transdermal formulations Formulations 1 to 8 in the sites of the dehaired abdomen and constantly collected blood, and serums were separated. The serums were partitioned and extracted with n-hexane-chloroform (7:3) and about 0.0005M aqueous sodium hydroxide solution, and the organic layers were evaporated and dried to solids. The resulting solids were dissolved, and serum concentrations of perospirone and its main metabolite ID-15036 were determined by quantification via reverse phase high performance liquid chromatography. […]
7-Week-old SD male rats were administered orally with 10 mg/kg of a solution of perospirone hydrochloride hydrate in a distilled water for injection in a concentration of 2 mg/ml, and the blood was collected with lapse of time. Serum concentrations of perospirone and the main metabolite ID-15036 were determined in the same manner as Experiment 3. […]

O=C1C2CCCCC2(O)C(=O)N1CCCCN1CCN(c2nsc3ccccc23)CC1 (centres unmarked) [ID-15036]
antiserotonin activity compared to perospirone (antiserotonin activity): about ⅛

O=C1[C@H]2CCCC[C@H]2C(=O)N1CCCCN1CCN(c2nsc3ccccc23)CC1 [perospirone hydrochloride hydrate]
Efficacy (positive numbers/total numbers) ([1]; oral 0.5 mg/Kg, 1 hour after administration): 0/5 | Efficacy (positive numbers/total numbers) ([1]; oral 3 mg/Kg, 1 hour after administration): 3/5 | Efficacy (positive numbers/total numbers) ([1]; oral 3 mg/Kg, 10 hours after administration): 0/7 | Efficacy (positive numbers/total numbers) ([2]; oral 2 mg/Kg, 1 hour after administration): 2/5 | Efficacy (positive numbers/total numbers) ([2]; oral 10 mg/Kg, 1 hour after administration): 5/5 | Efficacy (positive numbers/total numbers) ([2]; oral 10 mg/Kg, 10 hours after administration): 4/5 | Efficacy (positive numbers/total numbers) ([2]; oral 10 mg/Kg, 48 hours after administration): 0/5 | time of maximum serum concentrations after administration [3]: 30 min

O=C1[C@H]2CCCC[C@H]2C(=O)N1CCCCN1CCN(c2nsc3ccccc23)CC1 [perospirone, cis-N-[4-[4-(1,2-benzisothiazol-3-yl)-1-piperazinyl]butyl]cyclohexane-1,2-dicarboximide]
antiserotonin activities ([1]; oral administration, group of 3 mg/Kg): antiserotonin activities could not be recognized 10 hours after administration | antidopaminergic activities ([2]; oral administration): showed antidopaminergic activities 1 and 10 hours after administration but not 48 hours after administration
